What all share (assay): NCI-60 cell line screen, 48 h
For assay [1], the system named is CCRF-CEM leukemia.
Assay [2] relates to HS 578T breast.
Assay [3] deals with A549 NSCLC.
The test system of assay [4] is HT29 colon.
For assay [5], the system named is HOP-92 NSCLC.
Assay [6] deals with K-562 leukemia.
For assay [7], the system named is IGROV1 ovarian.
Assay [8] concerns SR leukemia.
Assay [9] concerns BT-549 breast.
Assay [10] relates to SF-295 CNS.
For assay [11], the system named is COLO 205 colon.

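Following 48 hours of exposure in 96-well plates, responses at five concentrations were used to interpolate endpoints linearly. TGI: concentration producing complete growth inhibition.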 A value given as a limit tells only on which side of the number the result lay.

As for `CCOP(=O)(OCC)/C(F)=C/c1ccccc1`, the TGI in [1], in [2], in [3], in assay [4], in assay [5] and in assay [6] was over 100 µM each time. The TGI in assay [7], in [8], in assay [9], in assay [10] and in assay [11] was over 100 µM in each case.
With `C(=Nc1ccc(-c2nc3ccccc3s2)cc1)c1ccco1`, the TGI in assay [1], in assay [2], in assay [3], in assay [4], in assay [5] and in [6] was over 100 µM in each case. The TGI in assay [7] was over 100 µM; in assay [8], over 100 µM; in assay [9], over 100 µM; in assay [10] it was 59.1 µM; in [11] it was over 100 µM.
`Cc1cccc(N(CCC#N)S(=O)(=O)c2ccccc2)c1`: the TGI in assay [1], in assay [2], in assay [3], in assay [4], in [5] and in assay [6] was over 100 µM in each case. The TGI in assay [7], in assay [8], in assay [9] and in [11] was over 100 µM in each case.
On to `c1ccc2c(c1)CCCN1CCc3ccccc3C21` (centres undefined), for which the TGI in [1], in assay [2], in assay [3], in assay [4], in [5] and in assay [6] was over 100 µM in each case. For the same molecule, the TGI in assay [7], in assay [8], in assay [9], in assay [10] and in assay [11] was over 100 µM in each case.
In the case of `COC(=O)C1CC(C=[N+](C)C)=C(SC)N1` (centres undefined), the TGI in assay [2], in assay [4], in assay [5], in assay [6], in assay [7] and in assay [8] was over 100 µM in each case. The TGI in [9], in assay [10] and in assay [11] was over 100 µM in each case.
Consider `Cc1cc(O)cc(O)c1N=Nc1ccc([N+](=O)[O-])cc1`, for which the TGI in assay [1] was over 100 µM; in [2], 73.7 µM; in assay [3] it was over 100 µM; in assay [4], over 100 µM; in assay [5], 8.17 µM; in [6] it was over 100 µM. Further, the TGI in assay [7] is 66.3 µM; in [9] it was 54.1 µM; in [10], over 100 µM; in assay [11] it was over 100 µM.
Take `O=C1/C(=C/c2ccc(F)cc2)CNC/C1=C\c1ccc(F)cc1`: the TGI in assay [1] was over 100 µM; in assay [2] it was over 42.1 µM; in [3], 18.1 µM; in assay [4], 7.4 µM; in assay [5], over 21.5 µM; in assay [7], 2.52 µM. Also, the TGI in [8] is over 100 µM; in assay [9], 3.67 µM; in [10], 6.19 µM; in assay [11], 3.42 µM.
With `C/C(=N/NC(=S)Nc1cccc(C)c1)c1ccccn1`, the TGI in assay [2] came to 41.1 µM; in assay [3], 8.51 µM; in [4] it was 2.39 µM; in [5] it was 6.12 µM; in [6] it was 1.64 µM; in [7], 4.68 µM. For the same molecule, the TGI was found to be 2.92 µM in assay [8], 12.2 µM in [9], 4.89 µM in assay [10] and 1.34 µM in assay [11].
In the case of `CC1CC(C#N)=C2NCCCCN2C1=O` (centres undefined), the TGI in assay [1], in [2], in [3], in assay [4], in assay [6] and in [7] was over 100 µM each time. Moreover, the TGI in assay [8], in [9], in assay [10] and in [11] was over 100 µM each time.
As for `CCOc1ccc(N=C/C=C(\Cl)c2ccc3ccccc3c2)cc1`, the TGI in assay [2] is 82.2 µM; in assay [3], over 100 µM; in assay [4] it was 33.3 µM; in [5], 33.3 µM; in [6] it was 23.7 µM; in assay [7] it was 41.5 µM. Further, the TGI in [8] amounted to 5.31 µM; in assay [9], 40.4 µM; in assay [10], 36 µM; in [11] it was 37.7 µM.
As for `O=C1/C(=C/c2ccc(Br)s2)NC(=S)N1CN1CCOCC1`, the TGI in [2] was over 100 µM; in [4], over 100 µM; in [6] it was 99.2 µM; in assay [7], over 100 µM; in [8], 55.2 µM; in assay [9] it was over 100 µM. Moreover, the TGI in [10] is over 100 µM; in [11], 87.9 µM.
Take `Cc1ccc(C2=Nc3c(c(C)nn3-c3ccccc3)N=C(C(=O)O)C2)cc1`: the TGI in assay [1], in [2], in assay [3], in assay [4], in [5] and in assay [6] was over 10 µM throughout. Further, the TGI in assay [7], in assay [9], in assay [10] and in assay [11] was over 10 µM in each case.
Consider `COc1cc2c(cc1OC)C(=O)/C(=C/c1cc(C)c(O)c(C)c1)C2`, for which the TGI in assay [1], in assay [2], in assay [3], in assay [5], in [6] and in assay [7] was over 100 µM in each case. Moreover, the TGI in [8], in [9] and in assay [11] was over 100 µM throughout.

These data come from PubChem BioAssay (NCI).
